Measurements taken from ChEMBL document CHEMBL4507324 (2021).

Tests used:
Details in all cases: Compound concentration 100.0 nM
[1] = system: Tyrosine-protein kinase ABL1 (Homo sapiens), P00519 [F317L]
[2] = system: Tyrosine-protein kinase ABL1 (Homo sapiens), P00519 [H396P]
[3] = system: Tyrosine-protein kinase ABL1 (Homo sapiens), P00519 [Y253F]
[4] = biological target: Ankyrin repeat and protein kinase domain-containing protein 1 (Homo sapiens) (UniProt Q8NFD2)
[5] = biological target: Serine/threonine-protein kinase BRSK2 (Homo sapiens) (UniProt Q8IWQ3)
[6] = biological target: Tyrosine-protein kinase BTK (Homo sapiens) (UniProt Q06187)
[7] = biological target: Cyclin-dependent kinase 3 (Homo sapiens) (UniProt Q00526)
[8] = biological target: Cyclin-dependent kinase-like 2 (Homo sapiens) (UniProt Q92772)
[9] = biological target: Casein kinase I isoform alpha-like (Homo sapiens) (UniProt Q8N752)
[10] = biological target: Casein kinase I isoform epsilon (Homo sapiens) (UniProt P49674)
[11] = biological target: Megakaryocyte-associated tyrosine-protein kinase (Homo sapiens) (UniProt P42679)
[12] = biological target: Serine/threonine-protein kinase DCLK1 (Homo sapiens) (UniProt O15075)
[13] = biological target: Mitogen-activated protein kinase kinase kinase 12 (Homo sapiens) (UniProt Q12852)
[14] = biological target: Myotonin-protein kinase (Homo sapiens) (UniProt Q09013)
[15] = biological target: Ephrin type-A receptor 2 (Homo sapiens) (UniProt P29317)
[16] = biological target: Beta-adrenergic receptor kinase 1 (Homo sapiens) (UniProt P25098)
[17] = biological target: Glycogen synthase kinase-3 beta (Homo sapiens) (UniProt P49841)
[18] = biological target: Hormonally up-regulated neu tumor-associated kinase (Homo sapiens) (UniProt P57058)
[19] = biological target: Interleukin-1 receptor-associated kinase 1 (Homo sapiens) (UniProt P51617)
[20] = biological target: Interleukin-1 receptor-associated kinase 4 (Homo sapiens) (UniProt Q9NWZ3)
[21] = biological target: Tyrosine-protein kinase JAK2 (Homo sapiens) (UniProt O60674)
[22] = biological target: Mast/stem cell growth factor receptor Kit (Homo sapiens) (UniProt P10721)
[23] = biological target: LIM domain kinase 2 (Homo sapiens) (UniProt P53671)
[24] = biological target: Serine/threonine-protein kinase 10 (Homo sapiens) (UniProt O94804)
[25] = biological target: Serine/threonine-protein kinase 26 (Homo sapiens) (UniProt Q9P289)
[26] = biological target: Myosin light chain kinase family member 4 (Homo sapiens) (UniProt Q86YV6)
[27] = biological target: Mitogen-activated protein kinase kinase kinase 14 (Homo sapiens) (UniProt Q99558)
[28] = biological target: Cyclin-dependent kinase 15 (Homo sapiens) (UniProt Q96Q40)
[29] = biological target: Phosphatidylinositol 4,5-bisphosphate 3-kinase catalytic subunit beta isoform (Homo sapiens) (UniProt P42338)
[30] = biological target: Phosphatidylinositol 4-phosphate 5-kinase type-1 gamma (Homo sapiens) (UniProt O60331)
[31] = biological target: Serine/threonine-protein kinase N1 (Homo sapiens) (UniProt Q16512)
[32] = biological target: Protein kinase C theta type (Homo sapiens) (UniProt Q04759)
[33] = biological target: Serine/threonine-protein kinase RIO3 (Homo sapiens) (UniProt O14730)
[34] = biological target: Receptor-interacting serine/threonine-protein kinase 2 (Homo sapiens) (UniProt O43353)
[35] = biological target: Serine/threonine-protein kinase SBK1 (Homo sapiens) (UniProt Q52WX2)
[36] = biological target: NUAK family SNF1-like kinase 2 (Homo sapiens) (UniProt Q9H093)
[37] = biological target: SRSF protein kinase 2 (Homo sapiens) (UniProt P78362)
[38] = biological target: TGF-beta receptor type-2 (Homo sapiens) (UniProt P37173)
[39] = biological target: Non-receptor tyrosine-protein kinase TNK1 (Homo sapiens) (UniProt Q13470)
[40] = biological target: High affinity nerve growth factor receptor (Homo sapiens) (UniProt P04629)
[41] = biological target: Testis-specific serine/threonine-protein kinase 3 (Homo sapiens) (UniProt Q96PN8)
[42] = biological target: Non-receptor tyrosine-protein kinase TYK2 (Homo sapiens) (UniProt P29597)
[43] = biological target: Vascular endothelial growth factor receptor 2 (Homo sapiens) (UniProt P35968)
[44] = biological target: Wee1-like protein kinase 2 (Homo sapiens) (UniProt P0C1S8)
[45] = biological target: Serine/threonine-protein kinase WNK3 (Homo sapiens) (UniProt Q9BYP7)
[46] = biological target: Serine/threonine-protein kinase 32B (Homo sapiens) (UniProt Q9NY57)

Cyclin-dependent kinase 15 (Homo sapiens), sequence (Q96Q40 whole entry, canonical isoform): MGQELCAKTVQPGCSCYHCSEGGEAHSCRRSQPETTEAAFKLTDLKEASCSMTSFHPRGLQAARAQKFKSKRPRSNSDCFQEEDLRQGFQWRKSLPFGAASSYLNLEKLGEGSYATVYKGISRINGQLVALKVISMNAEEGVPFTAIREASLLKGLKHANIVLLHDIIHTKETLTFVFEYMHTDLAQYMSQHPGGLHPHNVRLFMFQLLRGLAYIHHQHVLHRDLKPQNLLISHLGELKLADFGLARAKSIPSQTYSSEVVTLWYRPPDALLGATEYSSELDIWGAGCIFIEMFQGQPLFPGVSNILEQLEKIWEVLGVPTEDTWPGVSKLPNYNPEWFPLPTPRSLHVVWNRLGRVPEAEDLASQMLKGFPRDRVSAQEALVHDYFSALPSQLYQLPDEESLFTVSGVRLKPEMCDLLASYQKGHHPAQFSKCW
TGF-beta receptor type-2 (Homo sapiens), sequence (P37173 whole entry): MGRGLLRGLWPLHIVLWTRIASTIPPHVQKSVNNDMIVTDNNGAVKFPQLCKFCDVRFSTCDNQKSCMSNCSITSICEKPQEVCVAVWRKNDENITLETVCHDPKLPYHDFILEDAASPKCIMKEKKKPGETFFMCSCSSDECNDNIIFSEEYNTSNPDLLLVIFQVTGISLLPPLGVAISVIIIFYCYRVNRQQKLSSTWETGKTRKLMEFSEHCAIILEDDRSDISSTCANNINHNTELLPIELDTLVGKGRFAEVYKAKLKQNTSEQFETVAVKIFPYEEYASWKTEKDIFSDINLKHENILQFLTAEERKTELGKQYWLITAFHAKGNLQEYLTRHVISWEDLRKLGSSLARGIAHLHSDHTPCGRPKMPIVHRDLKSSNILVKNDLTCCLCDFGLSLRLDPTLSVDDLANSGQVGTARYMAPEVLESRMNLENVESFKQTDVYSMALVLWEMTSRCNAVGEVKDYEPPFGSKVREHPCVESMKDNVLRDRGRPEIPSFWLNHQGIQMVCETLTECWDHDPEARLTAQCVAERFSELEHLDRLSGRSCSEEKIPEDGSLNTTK
Serine/threonine-protein kinase RIO3 (Homo sapiens), sequence (O14730 whole entry): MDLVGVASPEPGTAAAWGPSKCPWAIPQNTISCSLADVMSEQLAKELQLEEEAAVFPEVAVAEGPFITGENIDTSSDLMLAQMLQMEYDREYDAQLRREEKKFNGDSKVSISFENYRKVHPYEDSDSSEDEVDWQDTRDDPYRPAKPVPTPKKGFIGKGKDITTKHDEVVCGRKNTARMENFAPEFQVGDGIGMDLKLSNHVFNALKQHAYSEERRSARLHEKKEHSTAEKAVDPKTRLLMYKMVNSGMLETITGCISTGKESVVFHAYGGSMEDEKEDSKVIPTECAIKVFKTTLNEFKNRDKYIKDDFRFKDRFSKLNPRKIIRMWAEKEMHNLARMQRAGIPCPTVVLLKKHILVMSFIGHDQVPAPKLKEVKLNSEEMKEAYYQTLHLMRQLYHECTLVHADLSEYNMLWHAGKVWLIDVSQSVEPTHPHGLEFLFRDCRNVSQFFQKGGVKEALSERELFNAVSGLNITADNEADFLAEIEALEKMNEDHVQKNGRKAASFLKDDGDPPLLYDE
Serine/threonine-protein kinase BRSK2 (Homo sapiens), sequence (Q8IWQ3 whole entry): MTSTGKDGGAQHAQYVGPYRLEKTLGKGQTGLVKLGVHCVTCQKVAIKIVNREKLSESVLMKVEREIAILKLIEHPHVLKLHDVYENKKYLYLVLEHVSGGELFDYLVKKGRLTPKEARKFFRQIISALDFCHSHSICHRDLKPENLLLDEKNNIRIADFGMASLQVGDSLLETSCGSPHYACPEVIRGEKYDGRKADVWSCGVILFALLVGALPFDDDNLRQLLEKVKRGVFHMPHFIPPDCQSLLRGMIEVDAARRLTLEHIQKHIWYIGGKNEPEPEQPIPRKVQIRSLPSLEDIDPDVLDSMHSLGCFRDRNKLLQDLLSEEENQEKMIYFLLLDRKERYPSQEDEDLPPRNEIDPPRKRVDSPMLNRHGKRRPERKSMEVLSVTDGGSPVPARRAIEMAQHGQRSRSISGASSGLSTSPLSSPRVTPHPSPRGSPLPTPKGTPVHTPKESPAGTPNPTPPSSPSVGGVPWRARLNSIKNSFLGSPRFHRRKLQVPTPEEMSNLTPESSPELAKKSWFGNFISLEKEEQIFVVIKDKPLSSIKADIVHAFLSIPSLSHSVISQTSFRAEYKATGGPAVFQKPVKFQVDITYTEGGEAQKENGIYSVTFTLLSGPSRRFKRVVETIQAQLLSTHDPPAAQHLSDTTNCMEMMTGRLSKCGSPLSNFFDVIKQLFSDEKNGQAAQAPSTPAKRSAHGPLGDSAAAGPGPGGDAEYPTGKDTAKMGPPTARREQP
Vascular endothelial growth factor receptor 2 (Homo sapiens), sequence (P35968 whole entry): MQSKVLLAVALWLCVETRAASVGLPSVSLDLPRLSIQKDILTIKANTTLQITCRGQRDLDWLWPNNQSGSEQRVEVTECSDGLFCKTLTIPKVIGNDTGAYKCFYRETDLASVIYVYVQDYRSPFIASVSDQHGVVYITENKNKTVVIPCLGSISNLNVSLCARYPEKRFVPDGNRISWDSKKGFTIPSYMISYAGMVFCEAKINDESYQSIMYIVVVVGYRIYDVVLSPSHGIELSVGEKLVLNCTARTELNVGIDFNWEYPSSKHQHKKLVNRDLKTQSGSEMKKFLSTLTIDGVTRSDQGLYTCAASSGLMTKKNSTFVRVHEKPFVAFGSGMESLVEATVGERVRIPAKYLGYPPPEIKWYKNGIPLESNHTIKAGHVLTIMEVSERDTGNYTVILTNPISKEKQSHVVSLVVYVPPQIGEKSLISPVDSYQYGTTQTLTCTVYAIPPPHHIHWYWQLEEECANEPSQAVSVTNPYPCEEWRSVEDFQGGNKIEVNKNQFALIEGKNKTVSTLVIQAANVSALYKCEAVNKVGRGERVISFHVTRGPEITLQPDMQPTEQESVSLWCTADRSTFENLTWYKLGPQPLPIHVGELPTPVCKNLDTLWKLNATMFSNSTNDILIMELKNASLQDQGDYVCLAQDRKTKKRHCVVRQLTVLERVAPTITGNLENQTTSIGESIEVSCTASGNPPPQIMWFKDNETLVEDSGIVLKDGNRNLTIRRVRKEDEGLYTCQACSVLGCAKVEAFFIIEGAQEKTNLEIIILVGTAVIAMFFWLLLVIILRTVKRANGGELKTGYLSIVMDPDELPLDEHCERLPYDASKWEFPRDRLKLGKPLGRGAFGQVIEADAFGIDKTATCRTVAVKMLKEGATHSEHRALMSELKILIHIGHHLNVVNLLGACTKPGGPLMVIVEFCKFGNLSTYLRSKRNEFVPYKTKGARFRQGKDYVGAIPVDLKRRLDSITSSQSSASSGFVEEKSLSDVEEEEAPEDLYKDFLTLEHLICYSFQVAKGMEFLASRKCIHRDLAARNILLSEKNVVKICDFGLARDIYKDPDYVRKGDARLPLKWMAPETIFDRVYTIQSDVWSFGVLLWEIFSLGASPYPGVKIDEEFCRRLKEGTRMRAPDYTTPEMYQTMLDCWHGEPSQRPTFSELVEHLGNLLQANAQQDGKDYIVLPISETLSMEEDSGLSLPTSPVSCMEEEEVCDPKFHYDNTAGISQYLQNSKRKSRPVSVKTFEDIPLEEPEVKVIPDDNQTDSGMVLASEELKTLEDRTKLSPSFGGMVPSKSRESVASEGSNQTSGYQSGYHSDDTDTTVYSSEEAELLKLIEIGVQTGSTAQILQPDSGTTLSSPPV
Serine/threonine-protein kinase N1 (Homo sapiens), sequence (Q16512 2-942 limits assumed): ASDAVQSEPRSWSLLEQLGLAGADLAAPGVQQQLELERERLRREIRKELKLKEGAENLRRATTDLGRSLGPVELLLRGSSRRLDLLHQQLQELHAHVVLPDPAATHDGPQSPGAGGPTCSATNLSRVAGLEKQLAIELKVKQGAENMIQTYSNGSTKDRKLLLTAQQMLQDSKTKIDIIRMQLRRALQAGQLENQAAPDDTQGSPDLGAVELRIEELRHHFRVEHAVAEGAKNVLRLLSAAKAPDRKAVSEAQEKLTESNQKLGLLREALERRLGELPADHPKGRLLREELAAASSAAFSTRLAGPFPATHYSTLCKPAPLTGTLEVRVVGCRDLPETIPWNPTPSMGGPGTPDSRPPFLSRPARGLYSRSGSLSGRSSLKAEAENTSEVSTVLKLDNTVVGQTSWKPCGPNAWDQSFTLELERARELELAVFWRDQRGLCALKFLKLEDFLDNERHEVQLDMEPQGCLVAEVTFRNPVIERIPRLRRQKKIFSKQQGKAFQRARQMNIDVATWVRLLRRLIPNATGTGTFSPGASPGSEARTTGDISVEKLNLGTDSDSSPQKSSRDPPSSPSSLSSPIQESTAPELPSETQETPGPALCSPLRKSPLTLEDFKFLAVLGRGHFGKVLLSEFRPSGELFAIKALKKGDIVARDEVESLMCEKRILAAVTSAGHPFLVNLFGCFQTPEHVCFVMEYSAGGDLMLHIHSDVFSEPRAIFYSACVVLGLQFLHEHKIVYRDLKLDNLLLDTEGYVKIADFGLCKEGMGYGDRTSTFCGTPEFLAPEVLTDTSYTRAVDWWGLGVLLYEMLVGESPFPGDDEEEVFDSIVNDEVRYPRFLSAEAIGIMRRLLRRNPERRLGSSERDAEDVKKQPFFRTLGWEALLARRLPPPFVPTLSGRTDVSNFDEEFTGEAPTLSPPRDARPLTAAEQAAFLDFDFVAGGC
Serine/threonine-protein kinase 26 (Homo sapiens), sequence (Q9P289 2-416 limits assumed): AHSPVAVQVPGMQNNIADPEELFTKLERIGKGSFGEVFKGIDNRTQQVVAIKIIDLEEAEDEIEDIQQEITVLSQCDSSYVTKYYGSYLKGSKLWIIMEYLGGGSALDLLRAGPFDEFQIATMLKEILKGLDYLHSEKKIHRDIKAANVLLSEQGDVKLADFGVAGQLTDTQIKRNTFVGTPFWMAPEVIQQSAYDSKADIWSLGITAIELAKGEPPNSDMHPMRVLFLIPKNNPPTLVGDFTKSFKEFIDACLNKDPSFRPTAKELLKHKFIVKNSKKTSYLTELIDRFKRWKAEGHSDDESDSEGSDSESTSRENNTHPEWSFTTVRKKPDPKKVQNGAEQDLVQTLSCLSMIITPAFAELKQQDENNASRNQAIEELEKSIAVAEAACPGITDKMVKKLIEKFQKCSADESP

CS(=O)(=O)N1CCCC(NC(=O)[C@H](CCC2CCCCC2)NC(=O)c2ccc(CNC(=O)c3cnc4ccccn34)cc2)C1 (some centres not stated) [SR-302]
residual activity [1]: 32% | residual activity [2]: 35% | residual activity [3]: 76% | residual activity [4]: 92% | residual activity [5]: 100% | residual activity [6]: 100% | residual activity [7]: 100% | residual activity [8]: 85% | residual activity [9]: 99% | residual activity [10]: 93% | residual activity [11]: 100% | residual activity [12]: 99% | residual activity [13]: 100% | residual activity [14]: 98% | residual activity [15]: 100% | residual activity [16]: 88% | residual activity [17]: 100% | residual activity [18]: 100% | residual activity [19]: 100% | residual activity [20]: 100% | residual activity [21]: 100% | residual activity [22]: 63% | residual activity [23]: 92% | residual activity [24]: 100% | residual activity [25]: 100% | residual activity [26]: 63% | residual activity [27]: 100% | residual activity [28]: 95% | residual activity [29]: 96% | residual activity [30]: 100% | residual activity [31]: 72% | residual activity [32]: 97% | residual activity [33]: 97% | residual activity [34]: 30% | residual activity [35]: 77% | residual activity [36]: 100% | residual activity [37]: 83% | residual activity [38]: 91% | residual activity [39]: 100% | residual activity [40]: 100% | residual activity [41]: 93% | residual activity [42]: 84% | residual activity [43]: 96% | residual activity [44]: 97% | residual activity [45]: 85% | residual activity [46]: 93%

CS(=O)(=O)N1CCCC(NC(=O)[C@H](CCC2CCCCC2)NC(=O)c2ccc(CNc3ncnc4c3nnn4-c3ccccc3)cc2)C1 (some centres not stated) [SR-301]
residual activity [1]: 100% | residual activity [2]: 99% | residual activity [3]: 84% | residual activity [4]: 80% | residual activity [5]: 79% | residual activity [6]: 100% | residual activity [7]: 82% | residual activity [8]: 100% | residual activity [9]: 100% | residual activity [10]: 100% | residual activity [11]: 100% | residual activity [12]: 100% | residual activity [13]: 100% | residual activity [14]: 100% | residual activity [15]: 100% | residual activity [16]: 72% | residual activity [17]: 100% | residual activity [18]: 100% | residual activity [19]: 100% | residual activity [20]: 100% | residual activity [21]: 100% | residual activity [22]: 89% | residual activity [23]: 100% | residual activity [24]: 100% | residual activity [25]: 92% | residual activity [26]: 100% | residual activity [27]: 83% | residual activity [28]: 74% | residual activity [29]: 81% | residual activity [30]: 85% | residual activity [31]: 98% | residual activity [32]: 90% | residual activity [33]: 88% | residual activity [34]: 59% | residual activity [35]: 82% | residual activity [36]: 100% | residual activity [37]: 34% | residual activity [38]: 93% | residual activity [39]: 96% | residual activity [40]: 100% | residual activity [41]: 100% | residual activity [42]: 99% | residual activity [43]: 85% | residual activity [44]: 100% | residual activity [45]: 85% | residual activity [46]: 65%
